Results reported in the NIST ThermoML archive (doi:10.1016/j.jct.2013.05.019).
± gives the expanded uncertainty stated by the source.

Assay: xn = mol fraction of the nth substance listed
Settings: 101 kPa, Liquid; for viscosity: Falling or rolling sphere viscometry; for mass density: Vibrating tube method; for electrical conductivity: Alternating current cell with electrodes

CC(=O)O.CCCCN [butylammonium acetate] + O
Settings	electrical conductivity [S/m]	mass density [kg/m3]	viscosity [mPa·s]
293.15 K, x1 = 0.031	–	1009.89 ± 0.11	2.659 ± 0.058
293.15 K, x1 = 0.06	–	1015.91 ± 0.11	4.018 ± 0.088
293.15 K, x1 = 0.0992	–	1014.35 ± 0.11	6.792 ± 0.15
293.15 K, x1 = 0.2007	–	1003.86 ± 0.11	16.91 ± 0.38
293.15 K, x1 = 0.2999	–	993.39 ± 0.12	35.04 ± 0.76
293.15 K, x1 = 0.4013	–	984.8 ± 0.12	53.35 ± 1.1
293.15 K, x1 = 0.5004	–	977.72 ± 0.13	101.3 ± 3.1
293.15 K, x1 = 0.5666	–	974.54 ± 0.14	141.64 ± 5.5
293.15 K, x1 = 0.7973	–	964.56 ± 0.18	390.26 ± 27
293.15 K, x1 = 0.8972	–	962.15 ± 0.21	579.35 ± 48
293.15 K, x1 = 1	–	959.61 ± 0.23	771.69 ± 71
298.15 K, x1 = 0.0006	0.168 ± 0.039	–	–
298.15 K, x1 = 0.0012	0.316 ± 0.032	–	–
298.15 K, x1 = 0.0018	0.434 ± 0.034	–	–
298.15 K, x1 = 0.0026	0.572 ± 0.036	–	–
298.15 K, x1 = 0.0032	0.67 ± 0.029	–	–
298.15 K, x1 = 0.0046	0.842 ± 0.03	–	–
298.15 K, x1 = 0.0078	1.12 ± 0.026	–	–
298.15 K, x1 = 0.0121	1.34 ± 0.027	–	–
298.15 K, x1 = 0.0181	1.45 ± 0.029	–	–
298.15 K, x1 = 0.031	–	1006.58 ± 0.12	2.328 ± 0.05
298.15 K, x1 = 0.0329	1.54 ± 0.031	–	–
298.15 K, x1 = 0.06	–	1013.18 ± 0.11	3.345 ± 0.073
298.15 K, x1 = 0.0682	1.58 ± 0.032	–	–
298.15 K, x1 = 0.0992	–	1011.15 ± 0.11	5.626 ± 0.12
298.15 K, x1 = 0.0999	1.54 ± 0.031	–	–
298.15 K, x1 = 0.2001	1.16 ± 0.023	–	–
298.15 K, x1 = 0.2007	–	1000.82 ± 0.11	13.83 ± 0.3
298.15 K, x1 = 0.2999	–	990.34 ± 0.12	28.14 ± 0.61
298.15 K, x1 = 0.3479	0.513 ± 0.01	–	–
298.15 K, x1 = 0.4013	–	981.74 ± 0.12	46.77 ± 1
298.15 K, x1 = 0.5004	–	974.67 ± 0.13	77.42 ± 1.9
298.15 K, x1 = 0.5427	0.164 ± 0.003	–	–
298.15 K, x1 = 0.5666	–	971.45 ± 0.14	102.65 ± 3.1
298.15 K, x1 = 0.7973	–	961.46 ± 0.18	283.43 ± 17
298.15 K, x1 = 0.8065	0.074 ± 0.002	–	–
298.15 K, x1 = 0.8972	–	958.98 ± 0.21	415.18 ± 30
298.15 K, x1 = 1	0.021 ± 0.001	956.44 ± 0.23	546.35 ± 44
303.15 K, x1 = 0.031	–	1003.24 ± 0.12	2.196 ± 0.047
303.15 K, x1 = 0.06	–	1009.87 ± 0.11	2.864 ± 0.062
303.15 K, x1 = 0.0992	–	1007.91 ± 0.11	4.714 ± 0.1
303.15 K, x1 = 0.2007	–	997.74 ± 0.11	11.79 ± 0.25
303.15 K, x1 = 0.2999	–	987.26 ± 0.12	22.91 ± 0.5
303.15 K, x1 = 0.4013	–	978.64 ± 0.13	40.9 ± 0.88
303.15 K, x1 = 0.5004	–	971.64 ± 0.14	60.97 ± 1.3
303.15 K, x1 = 0.5666	–	968.34 ± 0.14	82.19 ± 2.1
303.15 K, x1 = 0.7973	–	958.36 ± 0.18	211.13 ± 10
303.15 K, x1 = 0.8972	–	955.83 ± 0.21	304.3 ± 19
303.15 K, x1 = 1	–	953.33 ± 0.23	397.17 ± 28
308.15 K, x1 = 0.031	–	999.87 ± 0.12	1.864 ± 0.04
308.15 K, x1 = 0.06	–	1006.52 ± 0.11	2.439 ± 0.053
308.15 K, x1 = 0.0992	–	1004.62 ± 0.11	3.985 ± 0.086
308.15 K, x1 = 0.2007	–	994.62 ± 0.11	9.893 ± 0.21
308.15 K, x1 = 0.2999	–	984.17 ± 0.12	18.78 ± 0.41
308.15 K, x1 = 0.4013	–	975.55 ± 0.13	35.59 ± 0.77
308.15 K, x1 = 0.5004	–	968.58 ± 0.14	48.93 ± 1.1
308.15 K, x1 = 0.5666	–	965.22 ± 0.14	65.48 ± 1.5
308.15 K, x1 = 0.7973	–	955.23 ± 0.18	160.94 ± 6.7
308.15 K, x1 = 0.8972	–	952.69 ± 0.21	227.72 ± 12
308.15 K, x1 = 1	–	950.15 ± 0.23	294.59 ± 18
313.15 K, x1 = 0.031	–	996.47 ± 0.12	1.665 ± 0.036
313.15 K, x1 = 0.06	–	1003.14 ± 0.11	2.132 ± 0.046
313.15 K, x1 = 0.0992	–	1001.29 ± 0.11	3.489 ± 0.075
313.15 K, x1 = 0.2007	–	991.43 ± 0.11	8.389 ± 0.18
313.15 K, x1 = 0.2999	–	981.07 ± 0.12	15.67 ± 0.34
313.15 K, x1 = 0.4013	–	972.44 ± 0.13	31 ± 0.67
313.15 K, x1 = 0.5004	–	965.54 ± 0.14	42.95 ± 0.92
313.15 K, x1 = 0.5666	–	962.11 ± 0.14	56.12 ± 1.2
313.15 K, x1 = 0.7973	–	952.09 ± 0.18	133.31 ± 4.9
313.15 K, x1 = 0.8972	–	949.53 ± 0.21	180.6 ± 8.1
313.15 K, x1 = 1	–	946.98 ± 0.23	222.24 ± 11
